Results as given in patent US20230365639A1, “DEFENSIN FRAGMENT DERIVED LIPOPEPTIDES FOR TREATMENT OF DRUG-RESISTANT MICROORGANISMS” (priority 2020, published 2023).
Converted amounts (≈) assume the structure as drawn. “Also recorded” adds a separate entry of the source. Starred links: 1 amine or outer side, 2 acyl side, 3 side chain; linkers in the order of their positions; H or OH if unused. Non-standard residues stand in square brackets, D forms with d. Residues, ends and D or L forms follow the SMILES beside them. No end group written: not given here. ξ: configuration not given here. *: point of attachment. K(Pam) = CCCCCCCCCCCCCCCC(=O)NCCCC[C@H](N[*:1])C(=O)[*:2]; X1 = CCCCCCCCCCCCCCCC(=O)OCC(C*)OC(=O)CCCCCCCCCCCCCCC; Palmitoyl = CCCCCCCCCCCCCCCC(=O)*; AEEA = NCCOCCOCC(=O)O; ξC = NC(CS)C(=O)O

Tests used:
[1] = system: S. Typhimurium; test: Radial diffusion assay; format: cell-based
Method: (§1) Methods: Log-phase bacteria were cultivated for up to 18 hours in TSB (TSB, Becton Dickinson, USA), washed and diluted to 4×10^6 CFU in 10 ml agar. Bacteria were incubated in 10 ml of 10 mM sodium phosphate, pH 7.4, containing 0.3 mg/ml of TSB powder and 1% (w/v) low EEO-agarose (AppliChem). Lipopeptides were pipetted into punched wells and diffused into the gel for 3 hours at 37° C. After that, a nutrient-rich gel with 6% TSB (w/v) and 1% agarose in 10 mM sodium phosphate buffer was poured on top of the first gel and incubated for up to 24 hours at 37° C. Then the diameter of inhibition zones was measured.
(§2) Clinical isolates of A. baumannii DSM30007, E. faecium DSM2918, K. pneumoniae DSM30104 and P. aeruginosa DSM1117 were provided by the Department for Laboratory Medicine at Robert-Bosch-Hospital Stuttgart, Germany. C. rodentium DSM16636 and E. coli DSM8695 were obtained from the Deutsche Sammlung von Mikroorganismen and Zellkultur GmbH Braunschweig, Germany. […]

[2] = system: red blood cell; test: Hemolysis assay; format: cell-based
Method: (§3) Methods: Cellular toxicity was determined by Lactate dehydrogenase concentration and WST-1 cell proliferation assay as well as hemolysis assay.

[3] = Cellular toxicity, WST-1 cell proliferation assay; format: cell-based
Method: as §3

[4] = Cellular toxicity, lactate dehydrogenase (LDH) assay; format: cell-based
Method: as §3

[5] = system: S. aureus NCTC8325; test: Membrane potential assay with DiOC2(3); format: cell-based; settings: 30 min treatment
Method: S. aureus NCTC8325 was grown to log-phase in LB+0.1% glucose, harvested and the optical density at 600 nm (OD600) was adjusted to 0.5. Bacteria were incubated with 30 μM 3,3′-diethyloxacarbocyanine iodide (DiOC2(3), Invitrogen™) for 15 min in the dark and treated with serial peptide concentrations for 30 min. The protonophore carbonyl cyanide m-chlorophenyl hydrazone (CCCP, Sigma Aldrich) was used as a positive control and DMSO or 0.01% acetic acid as negative control. Fluorescence was measured at an excitation wavelength of 485 nm and two emission wavelengths, 530 nm (green) and 630 (nm) red, using a microplate reader (Tecan, Switzerland).

[6] = system: ypuA promoter; test: ypuA promoter luciferase reporter gene assay; format: cell-based, Bacillus subitilis 1S34
Method: A specific bacterial reporter strain with the genetic background of Bacillus subitilis 1S34, carrying the promoter of the ypuA gene, fused to the firefly luciferase reporter gene, was used to identify cell envelope-related damage caused by treatment with antimicrobial compounds. Bacteria were cultured to an OD600 of 0.9 in LB broth with 5 μg/ml erythromycin at 37° C. and diluted to an OD600 of 0.02. Serial peptide dilutions (0.15-150 μM) were prepared in a microtiter plate and incubated with the adjusted bacterial suspension at 37° C. for 1 hour. Subsequently, citrate buffer (0.1 M, pH 5) containing 2 mM luciferin (Iris Biotech, Germany) was added and luminescence was measured using a microplate reader (Tecan, Switzerland).

[7] = system: bacteria from the ESKAPE panel; format: cell-based
Method: Methods: Broth microdilution assay. Log-phase bacteria were collected by centrifugation (2500 rpm, 10 min, 4° C.), washed twice with 10 mM sodium phosphate buffer containing 1% (w/v) TSB and the optical density at 600 nm was adjusted to 0.1. Approximately 5×10^5 CFU/ml bacteria were incubated with serial peptide concentrations (1.17-150 μM) in a final volume of 100 μl in 10 mM sodium phosphate buffer containing 1% (w/v) TSB for 2 hours at 37° C. After incubation, 100 μl of 6% TSB (w/v) was added and absorbance was measured at 600 nm (Tecan, Switzerland) and monitored for 18 hours. Afterwards, 100 μl per well was plated on LB agar to determine the number of viable bacteria microbiologically. Bactericidal activity was expressed as the LC99.9, the lowest concentration that killed ≥99.9% of bacteria.

[8] = system: C. albicans; test: Broth microdilution assay, antifungal activity; format: cell-based
Method: (§4) Methods: Broth microdilution assay. Candida was cultured in TSB over night at 37° C., centrifuged (1500 rpm, 10 min, RT) and washed twice with 10 mM sodium phosphate buffer containing 1% (w/v) TSB. Candida cells were counted and approximately 5×10^5 CFU/ml fungi were incubated with serial peptide concentrations (1.17-150 μM) in a final volume of 100 μl in 10 mM sodium phosphate buffer containing 1% (w/v) TSB for 2 hours at 37° C. After incubation, 100 μl of 6% TSB (w/v) was added and absorbance was measured at 600 nm (Tecan, Switzerland) and monitored for 18 hours. Afterwards, 100 μl per well was plated on YPD agar to determine the number of viable bacteria microbiologically.

[9] = system: C. tropicalis; test: Broth microdilution assay, antifungal activity; format: cell-based
Method: as §4

[10] = system: several pathogenic bacteria; test: Radial diffusion assay and MIC screening for antimicrobial activity; format: cell-based; settings: radial diffusion assay and MIC determinations
Method: as §1, §2

[11] = Acute tolerability after oral administration; format: in vivo, C57BL/6N mice
Text: Methods: C57BL/6N mice were generated and maintained (including breeding and housing) at the animal facilities of the Helmholtz Centre for Infection Research (HZI) under enhanced specific pathogen-free (SPF) conditions (Stehr et al., 2009). Animals used in the experiments were gender and age matched. Female and male mice with an age of 8-12 weeks were used. Sterilized food and water ad libitum were provided. Mice were kept under a strict 12-hour light cycle (lights on at 7:00 am and off at […]) and housed in groups of two to six mice per cage. All mice were euthanized by asphyxiation with CO2 and cervical dislocation. All animal experiments were performed in agreement with the local government of Lower Saxony, Germany (approved permission No. 33.19-42502-04-18/2499).
Age- and gender-matched mice received two doses of peptides (0, 125 μg or 250 μg) solved in 100 μl PBS orally per day. Bodyweight and appearance were recorded. The following day, mice were sacrificed and stomach, kidney, spleen, liver, small intestine, cecum and colon were removed for histological scoring. Around 1 ml of blood was taken from the heart to measure inflammatory markers including creatinine in the kidney and the enzyme levels of glutamate-oxalacetate-transaminase (GOT) in the liver.

Compound	red blood cell disruption (hemolysis) [2]	metabolic activity (WST-1 assay) [3]	LDH activity (cytotoxicity) [4]	further results
RGKAKCCK (Cleavage product of defensin) [octapeptide, the C-terminal eight amino acids of human beta-defensin 1, non-modified]				inhibition of S. Typhimurium growth [1]: failed to inhibit
CCCCCCCCCCCCCCCC(=O)N[C@@H](CCCNC(=N)N)C(=O)NCC(=O)N[C@@H](CCCCN)C(=O)N[C@@H](C)C(=O)N[C@@H](CCCCN)C(=O)N[C@@H](CS)C(=O)N[C@@H](CS)C(=O)N[C@@H](CCCCN)C(=O)O [Pam-2] (Palmitoyl-RGKAKCCK-OH)	minimal red blood cell disruption	modest decrease	some LDH activity	
Pam-Lys(Pam)-RGKAKCCK ({Palmitoyl-K(Pam)}-RGKAKCCK; cysteine pairing not given here) [Pam-5, octapeptide lipopeptide containing lysine as spacer]	minimal red blood cell disruption	normal metabolic activity	no LDH activity	breakdown of the membrane potential [5]: most pronounced; cell envelope damage (ypuA reporter) [6]: little cell envelope damage; bactericidal activity ([7]; broth microdilution, 1.17-150 μM peptide, 2 hours): moderate effects; antifungal activity against C. albicans [8]: modest activity; also recorded: some efficacy; antifungal activity against C. tropicalis [9]: good activity; also recorded: highly effective; antimicrobial activity, inhibition of bacterial growth of the tested strains [10]: generally inactive
CCCCCCCCCCCCCCCC(=O)NC(CSCC(COC(=O)CCCCCCCCCCCCCCC)OC(=O)CCCCCCCCCCCCCCC)C(=O)N[C@@H](CCCNC(=N)N)C(=O)NCC(=O)N[C@@H](CCCCN)C(=O)N[C@@H](C)C(=O)N[C@@H](CCCCN)C(=O)N[C@@H](CS)C(=O)N[C@@H](CS)C(=O)N[C@@H](CCCCN)C(=O)O (stereo partly drawn) [Pam-4] (Palmitoyl-[ξC](X1)RGKAKCCK-OH)	minimal red blood cell disruption	normal metabolic activity	no LDH activity	
CCCCCCCCCCCCCCCC(=O)NCCOCCOCC(=O)N[C@@H](CCCNC(=N)N)C(=O)NCC(=O)N[C@@H](CCCCN)C(=O)N[C@@H](C)C(=O)N[C@@H](CCCCN)C(=O)N[C@@H](CS)C(=O)N[C@@H](CS)C(=O)N[C@@H](CCCCN)C(=O)O [Pam-3] ({Palmitoyl-AEEA}-RGKAKCCK-OH)	modest red blood cell disruption	slight decrease	little LDH activity	histological examination of gastrointestinal, liver and kidney tissues ([11]; mouse, in vivo, po): no alterations; serum level of creatinine ([11]; mouse, in vivo, po): no significant differences between the groups; serum level of glutamic oxaloacetic transaminase (GOT) ([11]; mouse, in vivo, po): no significant differences between the groups; acute toxicity (histological analysis and serum markers) ([11]; oral, mice, 24 hours after application, 125 or 250 μg doses): did not reveal any acute toxicity; also recorded: No danger signals; MIC [7]: 9.38 µM (≈ 12 µg/mL)
